Patent US10358435B2, “Triazolyl pyrimidinone compounds as PDE2 inhibitors” (Merck Sharp & Dohme Corp., priority 2015, dated 2019)

biological target: human PDE2A1 (Homo sapiens (Human), UniProt O00408); assay: IMAP fluorescence polarization assay, human PDE2A1 (PDE selectivity panel); type: biochemical; conditions: not given
Experimental: The activity of the compounds in accordance with the present invention as PDE2 inhibitors may be readily determined using a fluorescence polarization (FP) methodology (Huang, W., et al., J. Biomol Screen, 2002, 7: 215).
Dose-inhibition profiles for each compound were characterized by fitting the mP data to a four-parameter equation given below.
Selectivity for PDE2, as compared to other PDE families, was assessed using the IMAP® technology. Human PDE10A2 enzyme was prepared from cytosolic fractions of transiently transfected HEK cells. All other PDE's were GST Tag human enzyme expressed in insect cells and were obtained from BPS Bioscience (San Diego, Calif.): PDE1A (Cat#60010), human PDE2A1 (Cat#60020), PDE3A (Cat#60030), PDE4A1A (Cat#60040), PDE5A1 (Cat#60050), PDE6C (Cat#60060), PDE7A (Cat#60070), PDE8A1 (Cat#60080), PDE9A2 (Cat#60090), PDE11A4 (Cat#60110).
Assays for PDE 1 through 11 were performed in parallel at room temperature in 384-well microtiter plates with an incubation volume of 20.2 μL. Solutions of test compounds were prepared in DMSO and serially diluted with DMSO to yield 30 μL of each of ten solutions differing by 3-fold in concentration, at 32 serial dilutions per plate. […] A Labcyte POD 810 (Labcyte, Sunnyvale, Calif.) was used to dispense 200 nL from each well of the titration plate to make eleven copies of the assay plate for each titration, one copy for each PDE enzyme. A solution of each enzyme (dilution from aliquots, sufficient to produce 20% substrate conversion) and a separate solution of FAM-labeled cAMP or FAM-labeled cGMP from Molecular Devices (Sunnyvale, Calif., product # R7506 or cGMP#R7508), at a final concentration of 50 nM were made in the assay buffer (10 mM Tris HCl, pH 7.2, 10 mM MgCl2, 0.05% NaN3 0.01% Tween-20, and 1 mM DTT). Note that the substrate for PDE2 is 50 nM FAM cAMP containing 1000 nM of cGMP. The enzyme and the substrate were then added to the assay plates in two consecutive additions of 10 μL and then shaken to mix. The reaction was allowed to proceed at room temperature for 60 minutes. A binding solution was then made from the kit components, comprised of 80% Solution A, 20% Solution B and binding reagent at a volume of 1/600 the total binding solution. The enzymatic reaction was stopped by addition of 60 μL of the binding solution to each well of the assay plate. The plates were sealed and shaken for 10 seconds. The plates were incubated at room temperature for one hour, then the parallel and perpendicular fluorescence was measured using a Tecan Genios Pro plate reader (Tecan, Switzerland). The apparent inhibition constants for the compounds against all 11 PDE's was determined from the parallel and perpendicular fluorescent readings as described for PDE10 FP assay using the following apparent KM values for each enzyme and substrate combination: PDE1A (FAM cGMP) 70 nM, human PDE2A1 (FAM cAMP) 10,000 nM, PDE3A (FAM cAMP) 50 nM, PDE4A1A (FAM cAMP) 1500 nM, PDE5A1 (FAM cGMP) 400 nM, PDE6C (FAM cGMP) 700 nM, PDE7A (FAM cAMP) 150 nM, PDE8A1 (FAM cAMP) 50 nM, PDE9A2 (FAM cGMP) 60 nM, PDE10A2 (FAM cAMP) 150 nM, PDE11A4 (FAM cAMP) 1000 nM. The intrinsic PDE2 inhibitory activity of a compound which may be used in accordance with the present invention may be determined by these assays.

Sequence of human PDE2A1 (O00408 other isoform, or with tags, fused parts or gaps): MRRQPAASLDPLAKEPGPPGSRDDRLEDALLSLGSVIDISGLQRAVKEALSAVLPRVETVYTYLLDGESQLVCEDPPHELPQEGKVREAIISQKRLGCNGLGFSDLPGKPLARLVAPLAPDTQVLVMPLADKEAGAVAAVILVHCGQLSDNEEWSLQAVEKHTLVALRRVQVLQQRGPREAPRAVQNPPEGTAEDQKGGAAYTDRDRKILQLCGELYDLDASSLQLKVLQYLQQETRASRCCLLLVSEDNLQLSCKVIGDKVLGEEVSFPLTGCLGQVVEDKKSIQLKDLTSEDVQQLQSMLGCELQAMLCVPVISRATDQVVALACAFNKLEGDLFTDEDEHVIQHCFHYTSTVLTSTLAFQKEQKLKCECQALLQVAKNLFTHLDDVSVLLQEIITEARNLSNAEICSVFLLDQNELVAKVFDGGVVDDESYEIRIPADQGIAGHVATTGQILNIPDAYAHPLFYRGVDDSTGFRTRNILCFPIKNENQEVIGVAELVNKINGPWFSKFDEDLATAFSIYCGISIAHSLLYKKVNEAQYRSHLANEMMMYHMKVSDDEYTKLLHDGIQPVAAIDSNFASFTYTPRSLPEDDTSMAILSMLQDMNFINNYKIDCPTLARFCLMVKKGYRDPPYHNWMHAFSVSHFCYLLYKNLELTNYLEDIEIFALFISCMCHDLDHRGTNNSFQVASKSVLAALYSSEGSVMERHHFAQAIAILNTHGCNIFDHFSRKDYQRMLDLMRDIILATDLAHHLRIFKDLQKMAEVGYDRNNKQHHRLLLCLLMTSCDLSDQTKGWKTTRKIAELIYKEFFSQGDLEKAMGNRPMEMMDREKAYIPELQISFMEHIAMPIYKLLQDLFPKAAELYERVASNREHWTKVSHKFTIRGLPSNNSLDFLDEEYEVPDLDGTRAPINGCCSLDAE

`Cc1nc(-c2nnc(C(C)c3ccc(C(F)(F)F)cc3Cl)n2C)cc(=O)[nH]1` (single isomer, unassigned) [Example 67, (R)- or (S)-6-(5-(1-(2-chloro-4-(trifluoromethyl)-phenyl)ethyl)-4-methyl-4H-1,2,4-triazol-3-yl)-2-methylpyrimidin-4(3H)-one] was tested. Which inhibition at 3 µM did it give?
Its inhibition at 3 µM is 17%.

With `Cc1nc(-c2nnc3n2CCC[C@H]3c2ccc(C(F)(F)F)cc2)cc(=O)[nH]1` (mixture of isomers) [Example 71, (R)- and (S)-2-Methyl-6-(8-(4-(trifluoromethyl)phenyl)-5,6,7,8-tetrahydro-[1,2,4]triazolo[4,3-a]pyridin-3-yl)pyrimidin-4(3H)-one] as the compound, how does the inhibition at 3 µM read?
Its inhibition at 3 µM is 27%.

`Cc1nc(-c2nnn3c2CCC[C@H]3c2ccc(C(F)(F)F)cc2)cc(=O)[nH]1` (mixture of isomers) [Example 47, (R)- and (S)-2-Methyl-6-(7-(4-(trifluoromethyl)phenyl)-4,5,6,7-tetrahydro-[1,2,3]triazolo[1,5-a]pyridin-3-yl)pyrimidin-4(3H)-one] was tested. Which inhibition at 3 µM did it give?
The inhibition at 3 µM was 48%.

same assay, conditions: FAM cAMP 50 nM with 1000 nM cGMP

Which Ki does the source give for `Cc1nc(-c2cn(C(c3ccc(C(F)(F)F)cc3F)C3CC3)nn2)cc(=O)[nH]1` (single isomer, unassigned) [Example 41] here?
The Ki was 38 nM.

For `Cc1nc(-c2nnc(C(C)c3ccc(C(F)(F)F)cc3F)[nH]2)cc(=O)[nH]1` (single isomer, unassigned) [Example 61, (R)- or (S)-6-(5-(1-(2-fluoro-4-(trifluoromethyl)-phenyl)ethyl)-4H-1,2,4-triazol-3-yl)-2-methylpyrimidin-4(3H)-one], which Ki is on record?
Its Ki is 52.7 nM.

With `CCC(c1ccc(C(F)(F)F)cc1F)n1cc(-c2cc(=O)[nH]c(C)n2)nn1` (single isomer, unassigned) [Example 38, (S)- or (R)-6-(1-(1-(2-fluoro-4-(trifluoromethyl)phenyl)propyl)-1H-1,2,3-triazol-4-yl)-2-methylpyrimidin-4(3H)-one] as the compound, how does the Ki read?
Its Ki is 10.5 nM.

With `Cc1nc(-c2cnn(C(C)c3ccc(C(F)(F)F)cc3C)n2)cc(=O)[nH]1` (single isomer, unassigned) [Example 6, (S)- or (R)-2-methyl-6-(2-(1-(2-methyl-4-(trifluoromethyl)phenyl)ethyl)-2H-1,2,3-triazol-4-yl)pyrimidin-4(3H)-one] as the compound, how does the Ki read?
The Ki was ~1900 nM.

Which Ki does the source give for `Cc1nc(-c2nnn3c2CCCCC3(C)c2ccc(C(F)(F)F)cc2F)cc(=O)[nH]1` (single isomer, unassigned) [Example 93, (S)- or (R)-6-(8-(2-Fluoro-4-(triflouromethyl)phenyl)-8-methyl-5,6,7,8-tetrahydro-4H-[1,2,3]triazolo[1,5-a]azepin-3-yl)-2-methylpyrimidin-4(3H)-one] here?
Its Ki is 67 nM.

With `Cc1nc(-c2nnn3c2CCC[C@@]3(C)c2ccc(C(F)(F)F)cc2)cc(=O)[nH]1` (single isomer, unassigned) [Example 55] as the compound, how does the Ki read?
The Ki was 232 nM.

Which Ki does the source give for `Cc1nc(-c2nnc(C(C)c3ccc(C(F)(F)F)cc3F)n2C)cc(=O)[nH]1` (single isomer, unassigned) [Example 64, (S)- or (R)-6-(5-(1-(2-fluoro-4-(trifluoromethyl)-phenyl)ethyl)-4-methyl-4H-1,2,4-triazol-3-yl)-2-methylpyrimidin-4(3H)-one] here?
Its Ki is 23.3 nM.

For `Cc1nc(-c2cn(C(C)(C)c3ccc(C4CC4)cc3Cl)nn2)cc(=O)[nH]1` [Example 34, 6-(1-(2-(2-chloro-4-cyclopropylphenyl)propan-2-yl)-1H-1,2,3-triazol-4-yl)-2-methylpyrimdin-4(3H)-one], which Ki is on record?
The Ki was 4.9 nM.

For `Cc1nc(-c2nnc(C(C)c3ccc(C(F)(F)F)cc3Cl)n2C)cc(=O)[nH]1` (single isomer, unassigned) [Example 68, (S)- or (R)-6-(5-(1-(2-chloro-4-(trifluoromethyl)-phenyl)ethyl)-4-methyl-4H-1,2,4-triazol-3-yl)-2-methylpyrimidin-4(3H)-one], which Ki is on record?
Its Ki is 7.7 nM.

How did the Ki turn out when `COc1cccc(Cc2nc(-c3nnn4c3CCCC4(C)c3ccc(C(F)(F)F)cc3F)cc(=O)[nH]2)c1` (single isomer, unassigned) [Example 92] was run?
Its Ki is 728 nM.

Which Ki does the source give for `Cc1nc(-n2cc([C@H](C)c3ccc(C(F)(F)F)cc3Cl)nn2)cc(=O)[nH]1` (single isomer, unassigned) [Example 74] here?
Its Ki is 0.42 nM.

`CCC1(c2ccc(C(F)(F)F)cc2)CCCc2c(-c3cc(=O)[nH]c(C)n3)nnn21` (single isomer, unassigned) [Example 56, (R)- or (S)-6-(7-ethyl-7-(4-(trifluoromethyl)phenyl)-4,5,6,7-tetrahydro-[1,2,3]triazolo[1,5-a]pyridin-3-yl)-2-methylpyrimidin-4(3H)-one] was tested. Which Ki did it give?
Its Ki is 616 nM.

With `CCc1ccc(C(C)n2ncc(-c3cc(=O)[nH]c(C)n3)n2)c(Cl)c1` (single isomer, unassigned) [Example 7, (R)- or (S)-6-(2-(1-(2-chloro-4-ethylphenyl)ethyl)-2H-1,2,3-triazol-4-yl)-2-methylpyrimidin-4(3H)-one] as the compound, how does the Ki read?
Its Ki is 60.9 nM.

`Cc1nc(-c2nnn3c2CCCCC3c2ccc(C(F)(F)F)cc2)cc(=O)[nH]1` (single isomer, unassigned) [Example 52, (S)- or (R)-2-methyl-6-(8-(4-(trifluoromethyl)phenyl)-5,6,7,8-tetrahydro-4H-[1,2,3]triazolo[1,5-a]azepin-3-yl)pyrimidin-4(3H)-one] was tested. Which Ki did it give?
The Ki was 139 nM.

For `Cc1nc(-c2cn(C(c3ccc(C(F)(F)F)cc3F)C(C)C)nn2)cc(=O)[nH]1` (single isomer, unassigned) [Example 39, (R)- or (S)-6-(1-(1-(2-fluoro-4-(trifluoromethyl)phenyl)-2-methylpropyl)-1H-1,2,3-triazol-4-yl)-2-methylpyrimidin-4(3H)-one], which Ki is on record?
The Ki was 7.2 nM.

How did the Ki turn out when `COc1cccc(Cc2nc(-c3nnn4c3CCCC4(C)c3ccc(C(F)(F)F)cc3F)cc(=O)[nH]2)c1` (single isomer, unassigned) [Example 91, (S)- or (R)-6-(7-(2-Fluoro-4-(trifluoromethyl)phenyl)-7-methyl-4,5,6,7-tetrahydro-[1,2,3]triazolo[1,5-a]pyridin-3-yl)-2-(3-methoxy-benzyl)pyrimidin-4(3H)-one] was run?
Its Ki is 0.56 nM.

For `Cc1nc(-c2cn([C@@H](C)c3ccc(C(F)(F)F)cc3Cl)nn2)cc(=O)[nH]1` (single isomer, unassigned) [Example 36], which Ki is on record?
Its Ki is 1.7 nM.

With `Cc1nc(-c2nnc(C(C)c3ccc(C(F)(F)F)cc3F)[nH]2)cc(=O)[nH]1` (single isomer, unassigned) [Example 62, (S)- or (R)-6-(5-(1-(2-fluoro-4-(trifluoromethyl)-phenyl)ethyl)-4H-1,2,4-triazol-3-yl)-2-methylpyrimidin-4(3H)-one] as the compound, how does the Ki read?
The Ki was 387 nM.

For `Cc1nc(-n2ncc([C@H](C)c3ccc(C(F)(F)F)cc3Cl)n2)cc(=O)[nH]1` (single isomer, unassigned) [Example 82], which Ki is on record?
The Ki was 221 nM.

With `Cc1nc(-n2ncc([C@H](C)c3ccc(C(F)(F)F)cc3Cl)n2)cc(=O)[nH]1` (single isomer, unassigned) [Example 83] as the compound, how does the Ki read?
Its Ki is 4.2 nM.

How did the Ki turn out when `Cc1nc(-c2cn(C(C)c3ccc(C4CC4)cc3Cl)nn2)cc(=O)[nH]1` (single isomer, unassigned) [Example 25, (R)- or (S)-6-(1-(1-(2-chloro-4-cyclopropylphenyl)ethyl)-1H-1,2,3-triazol-4-yl)-2-methylpyrimidin-4(3H)-one] was run?
The Ki was 58.4 nM.
